The record followed here is ChEMBL document CHEMBL1201862, “PubChem BioAssay data set” (2004).

“And” between values parts separate entries of the source, which are not always exact repeats. Equal values may be shown once.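 Values below derive from 48-hour exposures of cells grown in 96-well plates, with endpoints linearly interpolated between the two concentrations bracketing the appropriate inhibition level. Abbreviation: GI50, concentration required for 50% inhibition of growth.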 The source made the active and inactive calls. Cut-off read from the data, not from the text of the source: active = GI50 up to about 1.1 µM and inactive = higher.

Some test systems named below: HCC 2998; HCT-15; HOP-62; HOP-92; HT-29; M14; MOLT-4; Malme-3M; NCI/ADR-RES; OVCAR-3; OVCAR-4; OVCAR-5; SF-268; SK-OV-3; SW-620; TK-10; Hs-578T; NCI-H522; SF-539.
Experiment in all cases: growth of human tumour cells (NCI), 48 h

Take `O=C(O)c1cc(O)c2c(c1)Cc1cccc(O)c1C2=O`: the GI50 with HCC 2998 is 41.4 µM (inactive); in the assay with HCT-15 it was 17.2 µM; in the assay with HOP-62 it was 19.1 µM (inactive); in the assay on HOP-92, 17.2 µM (inactive); with HT-29, 42.9 µM (inactive); with M14, 23.4 µM (inactive). Also, the GI50 is 22.7 µM (inactive) in the assay on MOLT-4; 19.7 µM (inactive) in the assay on Malme-3M; 24.9 µM (inactive) in the assay on NCI/ADR-RES; 17.9 µM (inactive) in the assay on OVCAR-3; 38 µM (inactive) with OVCAR-4; 29.9 µM (inactive) in the assay on OVCAR-5. For the same compound, the GI50 with SF-268 was 25.4 µM (inactive); in the assay on SK-OV-3, 30.5 µM (inactive); in the assay on SW-620, 38.5 µM (inactive); with TK-10, 34.4 µM (inactive).
Regarding `CC(CO)[C@H]1OC(=O)C=C2[C@@]13O[C@@H]3[C@H]1OC(=O)[C@@]3(C)[C@H]4O[C@H]4C[C@@]2(C)[C@@H]13` (some centres not stated), the GI50 with HCC 2998 is 1.65 µM (inactive); in the assay on HCT-15, 0.914 µM; with HOP-62, 2.94 µM (inactive); in the assay with HOP-92, 2.71 µM (inactive); with HT-29, 1.19 µM (inactive); in the assay with Hs-578T, 2.52 µM (inactive). The GI50 with M14 was 1.19 µM (inactive); in the assay on MOLT-4, 0.488 µM (active); in the assay with Malme-3M it was 2.13 µM (inactive); in the assay on NCI-H522, 1.46 µM (inactive); in the assay on OVCAR-3, 2.17 µM (inactive); in the assay with OVCAR-4, 1.15 µM (inactive). Also, the GI50 in the assay with OVCAR-5 was 3.78 µM (inactive); in the assay with SF-268, 0.973 µM (active); in the assay with SF-539 it was 1.83 µM (inactive); with SK-OV-3, 3.02 µM (inactive); in the assay with SW-620 it was 1.65 µM (inactive); with TK-10, 2.07 µM (inactive).
On to `C[C@]12CC[C@@H]3c4ccc(O)cc4CC[C@H]3[C@@H]1C/C(=C\c1ccc([N+](=O)[O-])cc1)C2=O`, for which the GI50 in the assay on HCC 2998 is 73.3 µM (inactive); with HCT-15, 67 µM; in the assay with HOP-62, 33.7 µM (inactive); with HT-29 it was 18.6 µM (inactive); in the assay with M14, 53.3 µM (inactive); in the assay with MOLT-4, > 100 µM (inactive). Further, the GI50 is 67.6 µM (inactive) with Malme-3M; 24.1 µM (inactive) in the assay with NCI-H522; 59.2 µM (inactive) with NCI/ADR-RES; 74 µM (inactive) in the assay on OVCAR-3; > 100 µM (inactive) with OVCAR-4; > 100 µM (inactive) with OVCAR-5. The GI50 is 52.6 µM (inactive) with SF-268; 29.9 µM (inactive) in the assay on SF-539; > 100 µM (inactive) in the assay on SK-OV-3; > 100 µM (inactive) in the assay on SW-620; 80 µM (inactive) in the assay on TK-10.
Take `Nc1nc(N)c2ncn(-c3ccc(Cl)cc3)c2n1`: the GI50 with HCC 2998 is 30.2 µM (inactive); in the assay on HCT-15, 24.8 µM; in the assay with HOP-62 it was 74.3 µM (inactive); in the assay with HOP-92, 24.8 µM (inactive); with HT-29 it was 35.1 µM (inactive); with M14, 39 µM (inactive). Further, the GI50 in the assay on Malme-3M was 28.4 µM (inactive); in the assay with NCI-H522 it was 28.6 µM (inactive); in the assay with NCI/ADR-RES it was 33.7 µM (inactive); in the assay with OVCAR-3 it was 40.6 µM (inactive); with OVCAR-4, 80.5 µM (inactive); in the assay on OVCAR-5, 16.7 µM (inactive). Further, the GI50 in the assay on SF-539 was 27.4 µM (inactive); in the assay on SK-OV-3 it was 20.5 µM (inactive); in the assay on TK-10, 20 µM (inactive).
`COc1ccc2c(c1)CC[C@@H]1[C@@H]2CC[C@]2(C)C(=O)/C(=C/c3ccc(N(C)C)cc3)C[C@@H]12`: the GI50 in the assay on HCC 2998 is > 100 µM (inactive); with HCT-15 it was over 100 µM; with HOP-62, 20.8 µM (inactive); in the assay with HOP-92, 24.2 µM (inactive); with M14, 61.2 µM (inactive); in the assay on MOLT-4, > 100 µM (inactive). The GI50 in the assay on Malme-3M is 83.2 µM (inactive); in the assay with NCI/ADR-RES, 33 µM (inactive); in the assay with OVCAR-3 it was 23 µM (inactive); in the assay on OVCAR-4, 37.2 µM (inactive); in the assay with OVCAR-5, > 100 µM (inactive); in the assay on SF-268 it was 32.4 µM (inactive). Further, the GI50 in the assay on SF-539 is > 100 µM (inactive); with SK-OV-3, 53.7 µM (inactive); with SW-620 it was > 100 µM (inactive); in the assay on TK-10, 33.2 µM (inactive).
With `Cc1ccc(C2=C(C#N)C(=O)N3CCN=C3S2)cc1`, the GI50 with HCC 2998 was > 100 µM (inactive); with HCT-15, over 100 µM; with HOP-92, > 100 µM (inactive); in the assay on HT-29 it was 57.1 µM (inactive); with M14 it was > 100 µM (inactive); with MOLT-4 it was > 100 µM (inactive). Further, the GI50 with Malme-3M is 43.5 µM (inactive); with NCI-H522 it was > 100 µM (inactive); with NCI/ADR-RES, > 100 µM (inactive); in the assay on OVCAR-3, > 100 µM (inactive); in the assay on OVCAR-4, > 100 µM (inactive); in the assay with OVCAR-5, > 100 µM (inactive). For the same compound, the GI50 in the assay on SF-539, with SK-OV-3, in the assay on SW-620 and in the assay on TK-10 was > 100 µM (inactive) each time.
With `COC(=O)C1OC(O[C@H]2CC[C@]3(C)[C@H]4CC=C5[C@@H]6CC(C)(C)CC[C@]6(C(=O)OC6OCC(O)C(O)C6OC6OC(C)C(OC7OCC(O)C(O)C7O)C(O)C6O)CC[C@@]5(C)[C@]4(C)CC[C@H]3C2(C)C)C(O)C(O)C1O` (some centres not stated), the GI50 is 11.9 µM (inactive) and 14.2 µM (inactive) with HCC 2998; 26.9 µM and 28.8 µM in the assay on HCT-15; 17.9 µM (inactive) and 18.4 µM (inactive) with HOP-62; 16.4 µM (inactive) and 19.9 µM (inactive) with HOP-92; 15.8 µM (inactive) and 16 µM (inactive) in the assay on HT-29; 18.2 µM (inactive) and 20.6 µM (inactive) with Hs-578T. The GI50 in the assay with M14 was 15.3 µM (inactive) and 18.2 µM (inactive); in the assay on MOLT-4 it was 19.3 µM (inactive) and 18.1 µM (inactive); in the assay on Malme-3M, 15.5 µM (inactive) and 18.4 µM (inactive); in the assay on NCI-H522, 16.1 µM (inactive) and 16.4 µM (inactive); in the assay with OVCAR-3, 39.5 µM (inactive) and 42.8 µM (inactive); in the assay with OVCAR-4 it was 15.8 µM (inactive) and 12.7 µM (inactive). Besides, the GI50 is 16.5 µM (inactive) and 20.7 µM (inactive) in the assay on OVCAR-5; 17.3 µM (inactive) and 19.6 µM (inactive) with SF-268; 21.2 µM (inactive) and 21.3 µM (inactive) with SK-OV-3; 19.6 µM (inactive) and 21.9 µM (inactive) in the assay on SW-620.
Regarding `COC(=O)[C@H](Cc1c[nH]c2ccccc12)NP(=O)(OCCC#N)OCC1OC(n2cc(C)c(=O)[nH]c2=O)CC1N=[N+]=[N-]` (some centres not stated), the GI50 with HCC 2998 was > 100 µM (inactive); with HCT-15, over 100 µM; in the assay with HOP-62 it was > 100 µM (inactive); in the assay on HOP-92, > 100 µM (inactive); with HT-29 it was > 100 µM (inactive); in the assay with M14, > 100 µM (inactive). The GI50 with MOLT-4, with Malme-3M, in the assay with NCI-H522, in the assay with NCI/ADR-RES, with OVCAR-3 and in the assay on OVCAR-4 was > 100 µM (inactive) in each case. The GI50 in the assay with OVCAR-5, with SF-268, in the assay with SK-OV-3, with SW-620 and with TK-10 was > 100 µM (inactive) throughout.
As for `CNC(=O)N1CN(c2ccccc2)C2(CCN(CCCC(=O)c3ccc(F)cc3)CC2)C1=O`, the GI50 in the assay on HCC 2998 is 7.82 µM (inactive); with HCT-15 it was 15.5 µM; in the assay with HOP-62, 8.22 µM (inactive); in the assay on HT-29, 5.19 µM (inactive); with M14, 16.5 µM (inactive); in the assay on MOLT-4, 4.57 µM (inactive). Further, the GI50 with Malme-3M is 20 µM (inactive); in the assay with NCI-H522 it was 24.9 µM (inactive); in the assay with NCI/ADR-RES it was 17.6 µM (inactive); in the assay with OVCAR-3 it was 18.4 µM (inactive); in the assay with OVCAR-5, 11.7 µM (inactive); in the assay with SF-268, 39.1 µM (inactive). Moreover, the GI50 in the assay with SF-539 was 13.9 µM (inactive); in the assay on SK-OV-3 it was 31.8 µM (inactive); in the assay with SW-620, 27.3 µM (inactive); in the assay with TK-10, 18 µM (inactive).
As for `N#Cc1cccc(N2C(=O)c3c(c(-c4ccccc4)c(-c4ccc(Sc5ccc(-c6c(-c7ccccc7)c7c(c(-c8ccccc8)c6-c6ccccc6)C(=O)N(c6cccc(C#N)c6)C7=O)cc5)cc4)c(-c4ccccc4)c3-c3ccccc3)C2=O)c1`, the GI50 with HCC 2998 was > 100 µM (inactive); with HCT-15, 43.8 µM; in the assay with HOP-62, 89.3 µM (inactive); in the assay on HOP-92 it was 3.92 µM (inactive); in the assay with HT-29, > 100 µM (inactive); in the assay on M14 it was > 100 µM (inactive). Also, the GI50 in the assay on MOLT-4 was 49.2 µM (inactive); in the assay on Malme-3M it was > 100 µM (inactive); in the assay with NCI-H522, > 100 µM (inactive); with OVCAR-3, > 100 µM (inactive); in the assay on OVCAR-4, > 100 µM (inactive); with OVCAR-5, > 100 µM (inactive). The GI50 in the assay on SF-268 was 55.7 µM (inactive); with SF-539, 65.2 µM (inactive); in the assay on SW-620, > 100 µM (inactive); in the assay on TK-10 it was 51.8 µM (inactive).
As for `COCC12CC(CC1=O)C1C2ON2c3ccccc3C(=O)C12c1ccccc1` (configuration not stated), the GI50 in the assay with HCC 2998 was > 100 µM (inactive); in the assay on HCT-15 it was over 100 µM; in the assay on HOP-62 it was > 100 µM (inactive); with HOP-92, > 100 µM (inactive); in the assay on HT-29, > 100 µM (inactive); in the assay with M14, > 100 µM (inactive). In addition, the GI50 with MOLT-4 is 52.5 µM (inactive); in the assay with Malme-3M, > 100 µM (inactive); in the assay on NCI-H522, > 100 µM (inactive); with OVCAR-4, 4.9 µM (inactive); in the assay on SF-268 it was > 100 µM (inactive); in the assay on SF-539, > 100 µM (inactive). Further, the GI50 with SK-OV-3 and with SW-620 was > 100 µM (inactive) each time.
